{
  "source": "patent US20240174594A1",
  "about": "“4-ALKENYL AND 4-ALKYNYL PHENETHYLAMINE DERIVATIVES AND RELATED COMPOUNDS WITH MODIFIED DOM-LIKE ACTION” (priority 2022, published 2024)",
  "key": {"humans": {"tested_on": "humans", "conditions": "cited from earlier work"}, "5-HT2A receptor": {"biological_target": "5-HT2A receptor (Homo sapiens, UniProt P28223)", "sequence (P28223 whole entry)": "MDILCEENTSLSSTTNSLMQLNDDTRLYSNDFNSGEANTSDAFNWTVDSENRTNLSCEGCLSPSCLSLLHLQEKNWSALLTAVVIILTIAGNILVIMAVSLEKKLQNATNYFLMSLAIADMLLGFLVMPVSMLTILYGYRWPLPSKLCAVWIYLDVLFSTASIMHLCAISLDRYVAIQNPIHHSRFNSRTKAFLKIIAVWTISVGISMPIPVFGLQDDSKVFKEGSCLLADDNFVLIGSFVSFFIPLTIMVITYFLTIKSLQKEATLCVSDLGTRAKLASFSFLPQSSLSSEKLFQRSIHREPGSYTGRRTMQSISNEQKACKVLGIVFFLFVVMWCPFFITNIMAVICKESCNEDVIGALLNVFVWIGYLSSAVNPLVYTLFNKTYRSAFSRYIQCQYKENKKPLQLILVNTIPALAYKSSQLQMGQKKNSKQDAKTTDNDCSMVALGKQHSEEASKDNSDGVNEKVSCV", "conditions": "cited from earlier work"}, "5-HT1A receptor": {"biological_target": "T1, 5-HT1A receptor (Homo sapiens, UniProt P08908)", "T1 sequence (P08908 1-422)": "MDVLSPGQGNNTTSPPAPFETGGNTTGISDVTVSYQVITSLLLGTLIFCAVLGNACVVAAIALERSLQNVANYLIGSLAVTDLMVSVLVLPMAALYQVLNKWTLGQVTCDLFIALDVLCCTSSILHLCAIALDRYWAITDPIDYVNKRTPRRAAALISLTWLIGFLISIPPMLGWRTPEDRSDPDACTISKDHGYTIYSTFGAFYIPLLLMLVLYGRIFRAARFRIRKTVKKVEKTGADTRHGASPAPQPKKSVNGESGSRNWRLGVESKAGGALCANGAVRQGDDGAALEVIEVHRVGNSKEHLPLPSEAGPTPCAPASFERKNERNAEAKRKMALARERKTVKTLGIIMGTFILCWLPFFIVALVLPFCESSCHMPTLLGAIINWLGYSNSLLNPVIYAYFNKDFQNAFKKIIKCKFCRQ", "conditions": "literature and data on file; cited from earlier work"}, "D2 receptors": {"biological_target": "D2 receptors (Homo sapiens, UniProt P14416)", "sequence (P14416 whole entry)": "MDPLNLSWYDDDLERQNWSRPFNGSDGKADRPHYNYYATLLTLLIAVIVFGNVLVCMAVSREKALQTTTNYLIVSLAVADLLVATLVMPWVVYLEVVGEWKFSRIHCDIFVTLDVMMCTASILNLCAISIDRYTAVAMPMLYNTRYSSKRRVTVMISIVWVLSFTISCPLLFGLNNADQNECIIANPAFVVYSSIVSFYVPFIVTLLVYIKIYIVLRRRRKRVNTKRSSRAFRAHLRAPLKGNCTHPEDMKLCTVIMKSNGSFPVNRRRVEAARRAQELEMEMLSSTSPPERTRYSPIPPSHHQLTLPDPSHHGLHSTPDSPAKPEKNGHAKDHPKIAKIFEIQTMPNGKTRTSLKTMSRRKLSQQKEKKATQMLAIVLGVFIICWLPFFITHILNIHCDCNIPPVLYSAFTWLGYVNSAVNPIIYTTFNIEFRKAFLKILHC", "conditions": "literature and data on file; cited from earlier work"}, "5-HT transporter (SERT) [1]": {"biological_target": "T2, 5-HT transporter (SERT) (Homo sapiens, UniProt P31645)", "T2 sequence (P31645 whole entry, species assumed)": "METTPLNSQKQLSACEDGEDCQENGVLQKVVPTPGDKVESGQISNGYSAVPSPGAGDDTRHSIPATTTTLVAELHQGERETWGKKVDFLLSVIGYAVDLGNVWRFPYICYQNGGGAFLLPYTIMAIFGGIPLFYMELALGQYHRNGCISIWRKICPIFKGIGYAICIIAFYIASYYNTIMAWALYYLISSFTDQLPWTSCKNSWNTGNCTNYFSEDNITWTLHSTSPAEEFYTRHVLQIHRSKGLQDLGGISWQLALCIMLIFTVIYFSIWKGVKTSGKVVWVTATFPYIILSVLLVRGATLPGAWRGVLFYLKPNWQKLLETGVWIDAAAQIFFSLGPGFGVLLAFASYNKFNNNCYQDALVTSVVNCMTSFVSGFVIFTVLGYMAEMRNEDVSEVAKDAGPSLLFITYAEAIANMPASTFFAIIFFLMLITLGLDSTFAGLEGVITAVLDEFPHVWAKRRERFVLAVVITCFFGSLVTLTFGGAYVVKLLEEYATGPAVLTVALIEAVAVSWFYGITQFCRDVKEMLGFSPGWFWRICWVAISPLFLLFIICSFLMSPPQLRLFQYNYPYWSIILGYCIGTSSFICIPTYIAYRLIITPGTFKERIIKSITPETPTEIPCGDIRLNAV", "assay": "interaction with the 5-HT transporter", "conditions": "data on file"}, "5-HT transporter (SERT) [2]": {"biological_target": "T2, 5-HT transporter (SERT)", "conditions": "cited from earlier work"}},
  "data": [
    {"molecule": "COc1cc(CCN)c(OC)cc1C", "note": "[2C-D, 2,5-dimethoxy-4-methylphenethylamine]", "values": [
      {"measurement": "duration of action / psychoactive effects", "setting": "humans", "value": "4 to 6", "unit": "h"},
      {"measurement": "psychoactive dose in humans (full active doses / human potency)", "setting": "humans", "value": "20 to 60", "unit": "mg"}
    ]},
    {"molecule": "C#Cc1cc(OC)c(CCN)cc1OC.Cl", "note": "[2C-YN, 2,5-Dimethoxy-4-ethynylphenethylamine hydrochloride]", "values": [
      {"measurement": "duration of action / psychoactive effects", "setting": "humans", "value": "2 to 3", "unit": "h"}
    ]},
    {"molecule": "COc1cc(CC(C)N)c(OC)cc1C", "note": "(centres unmarked) [DOM, 2,5-dimethoxy-4-methylamphetamine]", "values": [
      {"measurement": "5-HT2A receptor affinity", "setting": "5-HT2A receptor", "value": "high affinities"},
      {"measurement": "5-HT1A receptor affinity", "setting": "5-HT1A receptor", "value": "very low affinity"},
      {"measurement": "D2 receptor affinity", "setting": "D2 receptors", "value": "no affinity"},
      {"measurement": "interaction with the SERT", "setting": "5-HT transporter (SERT) [1]", "value": "do not interact"},
      {"measurement": "duration of action / psychoactive effects", "setting": "humans", "value": "14 to 20", "unit": "h"},
      {"measurement": "psychoactive dose in humans (full active doses / human potency)", "setting": "humans", "value": "3 to 10", "unit": "mg"},
      {"measurement": "psychoactive dose, off of baseline", "setting": "humans", "value": 1, "unit": "mg"},
      {"measurement": "time to first subjective effects", "setting": "humans", "value": 30, "unit": "min"},
      {"measurement": "time to full effects (onset of action)", "setting": "humans", "value": "up to 2 hours"}
    ]},
    {"molecule": "CCN(CC)C(=O)[C@@H]1C=C2c3cccc4[nH]cc(c34)C[C@H]2N(C)C1", "note": "[LSD, lysergic acid diethylamide]", "values": [
      {"measurement": "duration of action / psychoactive effects", "setting": "humans", "value": "8 to 12", "unit": "h"}
    ]},
    {"molecule": "CN(C)CCc1c[nH]c2cccc(O)c12", "note": "[Psilocin]", "values": [
      {"measurement": "action at the SERT", "setting": "5-HT transporter (SERT) [2]", "value": "inhibits"}
    ]},
    {"molecule": "COc1cc(CCN)cc(OC)c1OC", "note": "[mescaline]", "values": [
      {"measurement": "5-HT2A receptor affinity", "setting": "5-HT2A receptor", "value": "very weak"},
      {"measurement": "D2 receptor affinity", "setting": "D2 receptors", "value": "no affinity"}
    ]},
    {"molecule": "COc1cc(C)cc(OC)c1CC(C)N", "note": "(centres unmarked) [ψ-DOM, 2,6-dimethoxy-4-methylamphetamine]", "values": [
      {"measurement": "5-HT2A binding affinity in comparison to DOM", "setting": "5-HT2A receptor", "value": "approximately three-fold lower"},
      {"measurement": "duration of action / psychoactive effects", "setting": "humans", "value": "6 to 8", "unit": "h"},
      {"measurement": "psychoactive dose in humans (full active doses / human potency)", "setting": "humans", "value": "15 to 25", "unit": "mg"},
      {"measurement": "dose relative to DOM", "setting": "humans; higher dose than DOM", "value": "3- to 5 fold"}
    ]}
  ]
}
